Laboratory results taken from US12600732B2, “Bifunctional compounds for degrading BTK via ubiquitin proteosome pathway” (NURIX THERAPEUTICS, INC., priority 2019, dated 2026).

Experiments:
[1] = tested on: Mino cells; assay: Cell viability assay (CellTiter-Glo), Mino cells; format: cell-based; details: for EC50: Homo sapiens; for EC50 / EMAX (% viable cells): Mino cells, treatment time 72 h; for potency on cell viability compared with compound 130: MCL cell lines (Mino and Rec-1)
From the text: (§1) This example evaluates effects of CTM-mediated degradation on cell viability. […] Mino and Rec-1 are models of Mantle Cell Lymphoma, which is sensitive to IMiDs.

[2] = tested on: primary human T cells; assay: T cell activation assay, CD25 and CD69 staining (flow cytometry); format: cell-based; details: for CD25 Staining Anti-CD3/Anti-CD28 Stimulation / CD69 Staining Anti-CD3/Anti-CD28 Stimulation: fold-change of response relative to baseline; for expression of CD25 and CD69 compared to baseline (anti-CD3/anti-CD28 stimulation alone): primary human T cells
Outline: (§2)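 Primary human T cells stimulated via TCR with anti-CD3/anti-CD28 in the presence of test compound. IL-2 secretion measured by ELISA; surface CD25 and CD69 by flow cytometry. Values are fold-change versus anti-CD3/anti-CD28 stimulation without compound.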

[3] = tested on: Rec-1 cells; assay: Cell viability assay (CellTiter-Glo), Rec-1 cells; format: cell-based; details: for EC50: Homo sapiens, Rec1, treatment time 72 h; for EMAX (% viable cells): treatment time 72 h
From the text: as §1

[4] = tested on: B cell receptor (BCR) signaling; assay: B cell activation assay (flow cytometry), human B cells; format: cell-based; details: treatment 4 h, IgM stimulation 18 h
Experimental: Compound was present throughout the stimulation. Cells were stained with Live/Dead dye (Fisher L34976) and then fluorophore-conjugated antibodies against CD20 (Biolegend 302330), CD3 (BD Pharmingen 557705), CD86 (Biolegend 305416) and CD69 (Biolegend 310906). Stained cells were fixed in PFA and run on an Attune N×T Acoustic Focusing Flow Cytometer (Thermo-Fisher A29004), and data was analyzed using FlowJo (v10.5.3) and GraphPad Prism (v7.00) software. Single live lymphocytes were gated for B cells (CD20+CD3−) and T cells (CD3+CD20−), and the geometric mean fluorescence intensity (MFI) of CD86 and CD69 was calculated for each population. The MFI of the unstimulated sample was used to quantify baseline activation.
This example evaluates whether CTM treatment affects B cell receptor (BCR) signaling. BTK is activated downstream of the B cell receptor and leads to upregulation of activation markers CD86 and CD69 on the surface of B cells.

[5] = tested on: TMD8 cells; assay: Cell viability assay (CellTiter-Glo), TMD8 cells; details: for EC50: Homo sapiens, TMD8, 72 h; for EMAX (% viable cells): TMD8 cells, treatment time 72 h
[6] = tested on: B cell receptor (BCR) signaling; assay: B cell activation assay (flow cytometry), mouse B cells; format: cell-based; details: treatment 4 h, IgM stimulation 18 h
Outline: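 Compound was present throughout BCR stimulation. Live single lymphocytes were gated into CD20+CD3− B cells and CD3+CD20− T cells by flow cytometry. Geometric MFI of CD86 and CD69 was measured per population, with unstimulated samples defining baseline activation.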

[7] = target: BTK (Homo sapiens, UniProt Q06187); assay: BTK degradation in human PBMCs (BTK flow cytometry), primary human B cells; format: cell-based; parameters: endogenous in cells; host or cells: human PBMC (B cells) from healthy donors
BTK, sequence (Q06187 whole entry): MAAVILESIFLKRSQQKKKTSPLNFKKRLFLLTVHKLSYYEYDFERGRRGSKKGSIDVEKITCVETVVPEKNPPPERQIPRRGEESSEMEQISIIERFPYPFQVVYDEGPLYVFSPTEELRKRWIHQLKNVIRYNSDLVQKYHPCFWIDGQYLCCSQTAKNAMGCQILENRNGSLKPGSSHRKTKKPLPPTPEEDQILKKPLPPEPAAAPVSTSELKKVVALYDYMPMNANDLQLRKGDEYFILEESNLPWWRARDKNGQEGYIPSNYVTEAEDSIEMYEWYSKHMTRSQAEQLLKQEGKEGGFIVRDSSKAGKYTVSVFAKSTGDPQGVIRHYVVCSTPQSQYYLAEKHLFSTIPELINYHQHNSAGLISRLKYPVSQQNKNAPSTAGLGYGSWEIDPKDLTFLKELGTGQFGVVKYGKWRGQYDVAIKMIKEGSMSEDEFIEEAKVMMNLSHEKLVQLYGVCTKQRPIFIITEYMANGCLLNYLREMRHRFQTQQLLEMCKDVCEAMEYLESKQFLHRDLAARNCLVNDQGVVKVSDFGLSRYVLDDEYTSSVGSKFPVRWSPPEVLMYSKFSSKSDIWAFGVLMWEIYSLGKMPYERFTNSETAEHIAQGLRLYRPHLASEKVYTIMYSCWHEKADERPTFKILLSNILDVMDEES
Experimental: Human peripheral blood mononuclear cells (PBMC) were obtained either: 1) by using Ficoll-Paque™ (GE Healthcare) for separation of peripheral blood hematopoietic cells from buffy coats of healthy human donors; or 2) directly from LeukoPak donations. PBMCs were grown at 37° C. and 5% CO2 in RPMI supplemented with 10% heat-inactivated FBS (Corning Premium Fetal Bovine Serum from Fisher, MT35015CV), 1× Penicillin/Streptomycin, and 2 mM Glutamine.
BTK Degradation in Human PBMCs (BTK Flow Cytometry)
This example evaluates the potency of CTMs in primary human B cells, rather than transformed or immortalized cancer cell lines. Primary cells are believed to be a physiologically relevant model. Thus, this example confirms the potency, kinetics, and level of BTK degradation in these cells in addition to the cell line models. Furthermore, this assay establishes that it is possible to monitor BTK degradation in primary human B cells, which can serve as a clinical biomarker.

[8] = tested on: primary human T cells; assay: T cell activation assay, IL-2 secretion (ELISA); format: cell-based; details: for IL-2 secretion compared to baseline (anti-CD3/anti-CD28 stimulation alone): primary human T cells
Outline: as §2

[9] = target: T1, ITK (Homo sapiens, UniProt Q08881); assay: ITK levels in MOLT4 and TMD8 cells (FIGS. 10-12); format: cell-based; details: for effect on ITK levels in cells: MOLT4 and TMD8 cells, FIGS. 11A and 11B
T1 construct: endogenous in cells; host or cells: MOLT4, TMD8
T1 sequence (Q08881 1-620): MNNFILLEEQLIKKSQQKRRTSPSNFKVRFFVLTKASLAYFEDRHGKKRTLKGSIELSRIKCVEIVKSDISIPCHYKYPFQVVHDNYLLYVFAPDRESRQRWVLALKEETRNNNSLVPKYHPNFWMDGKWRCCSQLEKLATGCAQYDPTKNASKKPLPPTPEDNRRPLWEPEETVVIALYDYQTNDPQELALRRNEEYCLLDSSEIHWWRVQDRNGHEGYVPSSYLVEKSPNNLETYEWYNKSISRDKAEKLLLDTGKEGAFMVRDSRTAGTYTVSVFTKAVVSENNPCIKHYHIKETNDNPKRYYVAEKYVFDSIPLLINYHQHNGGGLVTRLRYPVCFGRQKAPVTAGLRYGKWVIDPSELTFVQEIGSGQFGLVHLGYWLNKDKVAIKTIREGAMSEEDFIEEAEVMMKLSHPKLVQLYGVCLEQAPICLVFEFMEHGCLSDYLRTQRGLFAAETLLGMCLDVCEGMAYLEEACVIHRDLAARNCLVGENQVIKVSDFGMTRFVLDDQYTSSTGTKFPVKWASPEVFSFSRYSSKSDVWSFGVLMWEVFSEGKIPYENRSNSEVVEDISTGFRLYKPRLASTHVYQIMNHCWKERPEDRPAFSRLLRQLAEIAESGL
From the text: FIGS. 10A and 10B provide effects of compounds 73, 72, 121, and 44, and control compounds, on neo-substrate and ITK or BTK levels after twenty-four hours in MOLT4 cells (FIG. 10A) and TMD8 cells (FIG. 10B).
FIGS. 11A and 11B provide effects of compounds 44, 72, and 149, and control compounds, on CRBN neo-substrate and ITK levels in MOLT4 cells (FIG. 11A) and TMD8 cells (FIG. 11B).
FIG. 12 provides effects of compounds 130, 149, and 44 on ITK levels and IMiD activity.

[10] = 1.4 nM, fold-change of response relative to baseline
[11] = 37 nM, fold-change of response relative to baseline
[12] = 333 nM, fold-change of response relative to baseline (stimulation without compound)
[13] = after twenty-four hours, TMD8 and/or MOLT4 cells, FIGS. 10A and 10B

Compound	EC50 ([4]; read-out: CD69 EC50) [nM]	EC50 ([4]; read-out: CD86 EC50) [nM]	EC50 ([6]; read-out: CD69 EC50) [nM]	EC50 ([6]; read-out: CD86 EC50) [nM]	DC50 ([7]; treatment time 4 h) [nM]	EC50 [1] [nM]	EMAX (% viable cells) [1] [%]	CD25 Staining Anti-CD3/Anti-CD28 Stimulation ([2]; 1.4 nM)	CD69 Staining Anti-CD3/Anti-CD28 Stimulation ([2]; 1.4 nM)	CD25 Staining Anti-CD3/Anti-CD28 Stimulation ([2]; 37 nM)	CD69 Staining Anti-CD3/Anti-CD28 Stimulation ([2]; 37 nM)	CD25 Staining Anti-CD3/Anti-CD28 Stimulation ([2]; 333 nM)	CD69 Staining Anti-CD3/Anti-CD28 Stimulation ([2]; 333 nM)	EC50 [3] [nM]	EMAX (% viable cells) [3] [%]	EC50 [5] [nM]	EMAX (% viable cells) [5] [%]	IL-2 Secretion Anti-CD3/Anti-CD28 Stimulation [8, 10]	IL-2 Secretion Anti-CD3/Anti-CD28 Stimulation [8, 11]	IL-2 Secretion Anti-CD3/Anti-CD28 Stimulation [8, 12]	also measured
CN1CCN([C@@H]2CCCN(c3cnc(C(N)=O)c(Nc4ccc(C5CCN(C[C@H]6CCN(c7ccc8c(c7)C(=O)N(C7CCC(=O)NC7=O)C8=O)C6)CC5)cc4)n3)C2)C1=O (stereo partly shown) [Compound 44]	0.5	0.5	0.2	0.4	0.51	11.7	61	1.25	1.21	0.86	0.85	0.52	0.60	0.82	37	3.73	15	1.43	3.49	3.75	potency on cell viability compared with compound 130 [1]: more potent; expression of CD25 and CD69 compared to baseline (anti-CD3/anti-CD28 stimulation alone) [2]: unchanged or decreased levels; DC50 ([7]; treatment time 1 h): 6 nM; DC50 ([7]; treatment time 2 h): 3 nM; IL-2 secretion compared to baseline (anti-CD3/anti-CD28 stimulation alone) [8]: increased IL-2 secretion but not to the level observed with IMiDs; effect on ITK levels in cells [9]: some effect; effects on ITK levels [9, 13]: some effects
NC(=O)c1ncc(N2CCCCC2)nc1Nc1ccc(C2CCN(C[C@@H]3CCN(c4ccc5c(c4)C(=O)N(C4CCC(=O)NC4=O)C5=O)C3)CC2)cc1 (stereo partly shown) [Compound 149]	4	5	–	–	1.9	3.4	50	1.31	1.22	1.02	0.93	0.61	0.63	0.17	24	9.62	7	1.86	3.63	4.24	potency on cell viability compared with compound 130 [1]: more potent; expression of CD25 and CD69 compared to baseline (anti-CD3/anti-CD28 stimulation alone) [2]: unchanged or decreased levels; IL-2 secretion compared to baseline (anti-CD3/anti-CD28 stimulation alone) [8]: increased IL-2 secretion but not to the level observed with IMiDs; effect on ITK levels in cells [9]: some effect
CN1CCN([C@H]2CCCN(c3cnc(C(N)=O)c(Nc4ccc(C5CCN(CC6CCN(c7ccc(C(=O)NC8CCC(=O)NC8=O)nc7)CC6)CC5)cc4)n3)C2)C1=O (stereo partly shown) [Compound 130]	0.4	0.5	–	–	0.13	176	78	1.02	1.00	0.98	0.96	0.55	0.55	155	63	1.5	27	1.19	1.42	2.02	effects on ITK levels ([9]; FIG. 12): slight effects

Further lines, with some results ahead:

EC50 ([4]; read-out: CD69 EC50) [nM]	EC50 ([4]; read-out: CD86 EC50) [nM]	EC50 ([6]; read-out: CD69 EC50) [nM]	EC50 ([6]; read-out: CD86 EC50) [nM]	DC50 ([7]; treatment time 4 h) [nM]	Compound	EC50 [1] [nM]	EMAX (% viable cells) [1] [%]	CD25 Staining Anti-CD3/Anti-CD28 Stimulation ([2]; 1.4 nM)	CD69 Staining Anti-CD3/Anti-CD28 Stimulation ([2]; 1.4 nM)	CD25 Staining Anti-CD3/Anti-CD28 Stimulation ([2]; 37 nM)	CD69 Staining Anti-CD3/Anti-CD28 Stimulation ([2]; 37 nM)	CD25 Staining Anti-CD3/Anti-CD28 Stimulation ([2]; 333 nM)	CD69 Staining Anti-CD3/Anti-CD28 Stimulation ([2]; 333 nM)	EC50 [3] [nM]	EMAX (% viable cells) [3] [%]	EC50 [5] [nM]	EMAX (% viable cells) [5] [%]	IL-2 Secretion Anti-CD3/Anti-CD28 Stimulation [8, 10]	IL-2 Secretion Anti-CD3/Anti-CD28 Stimulation [8, 11]	IL-2 Secretion Anti-CD3/Anti-CD28 Stimulation [8, 12]	also measured
–	–	0.5	0.9	–	CN1CCN([C@@H]2CCCN(c3cnc(C(N)=O)c(Nc4ccc(C5CCN(CC6CCN(c7ccc(-c8nn(C9CCC(=O)NC9=O)c(=O)n8C)cc7)CC6)CC5)cc4)n3)C2)C1=O (stereo partly shown) [Compound 121]	–	–	–	–	–	–	–	–	–	–	1.54	28	–	–	–	effects on ITK levels [9, 13]: minimal effects
–	–	0.07	0.2	–	CN1CCN([C@@H]2CCCN(c3cnc(C(N)=O)c(Nc4ccc(C5CCN(CC6CCN(c7ccc8c(=O)n(C9CCC(=O)NC9=O)ccc8c7)CC6)CC5)cc4)n3)C2)C1=O (stereo partly shown) [Compound 72]	–	–	–	–	–	–	–	–	–	–	0.429	26	–	–	–	effects on ITK levels ([9]; FIG. 12): slight effects; effects on ITK levels [9, 13]: does affect
